Experimental data reported in ChEMBL document CHEMBL4680157, “Design, synthesis and biological evaluation of novel TRβ selective agonists sustained by ADME-toxicity analysis” (Eur J Med Chem, 2020).

Key:
[1] = Toxicity in F344 rat assessed as increase in heart weight at 50 to 100 ug per 100 g body weight, ig administered daily for 3 days; settings: in vivo, po, 72 h, dose 50-100 µg, time 3 day
[2] = Toxicity in F344 rat assessed as increase in heart and body weight ratio at 50 to 100 ug per 100 g body weight, ig administered daily for 3 days; settings: in vivo, po, 72 h, dose 50-100 µg, time 3 day
[3] = Toxicity in F344 rat assessed as reduction in liver and body weight ratio at 50 to 100 ug per 100 g body weight, ig administered daily for 3 days; format: tissue-based; settings: in vivo, po, 72 h, dose 50-100 µg, time 3 day
[4] = Toxicity in F344 rat assessed as effect on serum AST/GOT level at 20 ug per 100 g of body weight, ig administered daily for 3 days (reference value: 153 +/- 11 U/L); settings: in vivo, po, 72 h, dose 20 µg, time 3 day
[5] = Toxicity in F344 rat assessed as effect on serum ALT/GPT level at 20 ug per 100 g of body weight, ig administered daily for 3 days (reference value: 46 +/- 4 U/L); settings: in vivo, po, 72 h, dose 20 µg, time 3 day
[6] = Toxicity in F344 rat assessed as effect on serum bilirubin level at 20 ug per 100 g of body weight, ig administered daily for 3 days (reference value: 1.4 +/- 0.2 mg/dl); settings: in vivo, po, 72 h, dose 20 µg, time 3 day
[7] = Toxicity in F344 rat assessed as effect on serum glucose level at 20 ug per 100 g of body weight, ig administered daily for 3 days (reference value: 151 +/- 13.5 mg/dl); settings: in vivo, po, 72 h, dose 20 µg, time 3 day
[8] = Toxicity in F344 rat assessed as effect on serum cholesterol level at 20 ug per 100 g of body weight, ig administered daily for 3 days (reference value: 67.2 +/- 2.5 mg/dl); settings: in vivo, po, 72 h, dose 20 µg, time 3 day
[9] = Toxicity in F344 rat assessed as effect on serum triglycerides level at 20 ug per 100 g of body weight, ig administered daily for 3 days (reference value: 86.8 +/- 10.4 mg/dl); settings: in vivo, po, 72 h, dose 20 µg, time 3 day
[10] = Cytotoxicity against human U2OS cells assessed as cell growth inhibition at 10 uM after 24 hrs relative to control; format: cell-based
[11] = Cytotoxicity against human U2OS cells assessed as cell growth inhibition at 10 uM after 48 hrs relative to control; format: cell-based
[12] = Cytotoxicity against human HEK293 cells assessed as cell growth inhibition at 10 uM after 24 hrs relative to control; format: cell-based
[13] = Cytotoxicity against human HEK293 cells assessed as cell growth inhibition at 10 uM after 48 hrs relative to control; format: cell-based
[14] = Cytotoxicity against human hTERT cells assessed as cell growth inhibition at 10 uM after 24 hrs relative to control; format: cell-based, hTERT-BJ
[15] = Cytotoxicity against human hTERT cells assessed as cell growth inhibition at 10 uM after 48 hrs relative to control; format: cell-based, hTERT-BJ
[16] = Cytotoxicity against human MCF7 cells assessed as cell growth inhibition at 10 uM after 24 hrs relative to control; format: cell-based
[17] = Cytotoxicity against human MCF7 cells assessed as cell growth inhibition at 10 uM after 48 hrs relative to control; format: cell-based
CYP1A2 = biological target: T1, CYP1A2 (Homo sapiens, UniProt P05177); test: Inhibition of CYP1A2 (unknown origin) at 10 uM relative to control; format: ADME
T1 sequence (P05177 whole entry): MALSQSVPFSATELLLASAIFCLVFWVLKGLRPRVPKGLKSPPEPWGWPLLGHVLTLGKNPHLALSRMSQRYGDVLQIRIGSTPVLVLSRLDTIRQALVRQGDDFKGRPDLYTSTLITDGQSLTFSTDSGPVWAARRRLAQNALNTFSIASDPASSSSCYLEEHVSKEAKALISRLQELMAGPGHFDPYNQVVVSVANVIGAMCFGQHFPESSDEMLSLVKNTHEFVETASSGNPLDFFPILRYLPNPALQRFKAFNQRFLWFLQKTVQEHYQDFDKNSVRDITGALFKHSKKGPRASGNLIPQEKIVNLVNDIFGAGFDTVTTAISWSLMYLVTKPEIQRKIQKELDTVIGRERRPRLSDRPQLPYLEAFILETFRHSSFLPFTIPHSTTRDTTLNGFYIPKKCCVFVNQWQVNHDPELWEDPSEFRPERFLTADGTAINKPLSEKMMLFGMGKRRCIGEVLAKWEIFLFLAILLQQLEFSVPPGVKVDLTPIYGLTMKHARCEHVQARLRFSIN

CYP2C9 = CYP2C9 (Homo sapiens, UniProt P11712); test: Inhibition of CYP2C9 (unknown origin) at 10 uM relative to control; format: ADME
Sequence of CYP2C9 (P11712 whole entry): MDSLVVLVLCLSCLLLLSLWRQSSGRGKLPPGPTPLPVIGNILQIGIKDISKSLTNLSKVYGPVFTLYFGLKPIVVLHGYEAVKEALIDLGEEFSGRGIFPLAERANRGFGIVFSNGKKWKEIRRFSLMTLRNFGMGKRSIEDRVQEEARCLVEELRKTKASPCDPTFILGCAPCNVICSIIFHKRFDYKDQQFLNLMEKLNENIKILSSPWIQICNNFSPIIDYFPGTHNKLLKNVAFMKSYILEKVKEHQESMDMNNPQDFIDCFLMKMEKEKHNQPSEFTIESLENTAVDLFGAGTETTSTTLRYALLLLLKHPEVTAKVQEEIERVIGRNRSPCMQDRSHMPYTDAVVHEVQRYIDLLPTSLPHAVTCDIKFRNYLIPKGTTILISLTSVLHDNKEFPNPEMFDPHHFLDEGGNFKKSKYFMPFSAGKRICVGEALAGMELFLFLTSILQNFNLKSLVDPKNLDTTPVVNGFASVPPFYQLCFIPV

CYP2C19 = CYP2C19 (Homo sapiens, UniProt P33261); test: Inhibition of CYP2C19 (unknown origin) at 10 uM relative to control; format: ADME
CYP2D6 = CYP2D6 (Homo sapiens, UniProt P10635); test: Inhibition of CYP2D6 (unknown origin) at 10 uM relative to control; format: ADME
CYP3A4 = CYP3A4 (Homo sapiens, UniProt P08684); test: Inhibition of CYP3A4 (unknown origin) at 10 uM relative to control; format: ADME
hERG (KCNH2) = hERG (KCNH2) (Homo sapiens, UniProt Q12809); test: Inhibition of human ERG at 10 uM by fluorescence polarization assay relative to control
Sequence of hERG (KCNH2) (Q12809 whole entry): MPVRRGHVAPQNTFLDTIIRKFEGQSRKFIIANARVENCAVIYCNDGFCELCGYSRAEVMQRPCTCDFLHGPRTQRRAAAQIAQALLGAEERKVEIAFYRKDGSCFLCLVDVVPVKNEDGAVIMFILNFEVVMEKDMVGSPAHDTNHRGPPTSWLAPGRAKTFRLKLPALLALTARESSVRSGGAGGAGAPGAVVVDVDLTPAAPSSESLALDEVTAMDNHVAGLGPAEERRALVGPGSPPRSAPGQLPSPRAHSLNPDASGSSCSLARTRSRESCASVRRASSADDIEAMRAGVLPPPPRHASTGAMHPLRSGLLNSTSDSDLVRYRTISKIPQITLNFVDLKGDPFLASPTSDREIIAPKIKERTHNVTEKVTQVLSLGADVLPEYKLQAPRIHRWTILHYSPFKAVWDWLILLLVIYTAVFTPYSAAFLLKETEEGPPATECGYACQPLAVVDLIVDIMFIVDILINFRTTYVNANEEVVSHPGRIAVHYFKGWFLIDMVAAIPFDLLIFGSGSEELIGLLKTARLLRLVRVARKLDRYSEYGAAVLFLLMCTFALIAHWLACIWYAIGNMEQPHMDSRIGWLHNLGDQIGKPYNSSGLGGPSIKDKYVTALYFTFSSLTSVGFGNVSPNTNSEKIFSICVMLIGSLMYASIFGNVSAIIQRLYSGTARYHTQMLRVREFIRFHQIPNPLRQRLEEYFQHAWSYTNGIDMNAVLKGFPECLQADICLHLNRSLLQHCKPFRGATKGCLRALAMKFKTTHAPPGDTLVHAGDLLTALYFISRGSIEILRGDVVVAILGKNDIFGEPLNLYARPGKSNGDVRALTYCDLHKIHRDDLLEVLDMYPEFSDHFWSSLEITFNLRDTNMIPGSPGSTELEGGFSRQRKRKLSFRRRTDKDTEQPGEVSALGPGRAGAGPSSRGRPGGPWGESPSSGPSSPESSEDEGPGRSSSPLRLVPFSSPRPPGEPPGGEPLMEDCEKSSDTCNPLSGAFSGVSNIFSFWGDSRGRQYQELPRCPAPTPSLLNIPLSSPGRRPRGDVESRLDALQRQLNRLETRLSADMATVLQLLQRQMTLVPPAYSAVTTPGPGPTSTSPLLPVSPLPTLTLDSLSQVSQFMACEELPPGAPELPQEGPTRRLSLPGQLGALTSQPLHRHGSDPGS

SIRT7 = biological target: T2, SIRT7 (Homo sapiens, UniProt Q9NRC8); test: Inhibition of SIRT7 (unknown origin) at 10 uM relative to control
T2 sequence (Q9NRC8 whole entry): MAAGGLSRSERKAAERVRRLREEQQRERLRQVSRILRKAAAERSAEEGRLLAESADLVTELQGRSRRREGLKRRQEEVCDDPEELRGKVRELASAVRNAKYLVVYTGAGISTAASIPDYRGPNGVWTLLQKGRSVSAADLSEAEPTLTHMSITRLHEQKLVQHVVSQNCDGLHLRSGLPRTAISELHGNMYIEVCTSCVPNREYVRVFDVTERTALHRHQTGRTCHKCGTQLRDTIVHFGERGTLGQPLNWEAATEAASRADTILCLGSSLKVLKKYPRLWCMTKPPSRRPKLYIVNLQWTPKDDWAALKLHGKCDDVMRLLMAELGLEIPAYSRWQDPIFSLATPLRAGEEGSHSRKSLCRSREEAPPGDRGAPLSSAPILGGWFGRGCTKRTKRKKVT

HDAC4 = HDAC4 (Homo sapiens, UniProt P56524); test: Inhibition of HDAC4 (unknown origin) at 10 uM relative to control
Sequence of HDAC4 (P56524 whole entry): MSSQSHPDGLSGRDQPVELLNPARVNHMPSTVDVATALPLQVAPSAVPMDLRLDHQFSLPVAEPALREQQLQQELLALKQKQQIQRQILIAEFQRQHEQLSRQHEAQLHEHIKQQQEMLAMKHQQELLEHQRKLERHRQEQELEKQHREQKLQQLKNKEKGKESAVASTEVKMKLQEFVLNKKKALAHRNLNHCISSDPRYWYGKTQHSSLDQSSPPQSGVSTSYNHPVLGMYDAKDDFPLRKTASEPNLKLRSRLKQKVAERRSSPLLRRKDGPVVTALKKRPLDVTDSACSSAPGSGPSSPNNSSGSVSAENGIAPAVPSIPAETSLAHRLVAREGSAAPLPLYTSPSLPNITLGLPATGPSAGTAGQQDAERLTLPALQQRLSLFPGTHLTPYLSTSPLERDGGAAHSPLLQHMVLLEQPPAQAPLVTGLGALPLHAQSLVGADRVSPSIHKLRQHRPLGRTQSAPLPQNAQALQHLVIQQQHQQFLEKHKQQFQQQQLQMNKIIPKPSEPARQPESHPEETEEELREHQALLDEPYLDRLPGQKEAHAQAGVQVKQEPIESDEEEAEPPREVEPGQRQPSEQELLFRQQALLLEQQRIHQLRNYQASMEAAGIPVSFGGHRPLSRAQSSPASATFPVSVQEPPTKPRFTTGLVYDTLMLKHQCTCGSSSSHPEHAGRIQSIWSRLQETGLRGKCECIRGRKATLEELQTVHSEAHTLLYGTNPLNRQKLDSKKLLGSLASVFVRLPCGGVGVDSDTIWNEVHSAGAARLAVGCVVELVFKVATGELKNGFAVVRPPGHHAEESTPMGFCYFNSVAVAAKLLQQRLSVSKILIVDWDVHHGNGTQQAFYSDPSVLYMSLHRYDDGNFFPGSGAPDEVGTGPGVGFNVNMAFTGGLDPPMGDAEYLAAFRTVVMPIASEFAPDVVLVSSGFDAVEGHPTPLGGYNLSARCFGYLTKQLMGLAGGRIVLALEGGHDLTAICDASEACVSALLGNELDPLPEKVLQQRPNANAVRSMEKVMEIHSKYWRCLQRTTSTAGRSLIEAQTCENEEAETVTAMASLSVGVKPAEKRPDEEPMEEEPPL

HDAC6 = biological target: T3, HDAC6 (Homo sapiens, UniProt Q9UBN7); test: Inhibition of HDAC6 (unknown origin) at 10 uM relative to control
T3 sequence (Q9UBN7 whole entry): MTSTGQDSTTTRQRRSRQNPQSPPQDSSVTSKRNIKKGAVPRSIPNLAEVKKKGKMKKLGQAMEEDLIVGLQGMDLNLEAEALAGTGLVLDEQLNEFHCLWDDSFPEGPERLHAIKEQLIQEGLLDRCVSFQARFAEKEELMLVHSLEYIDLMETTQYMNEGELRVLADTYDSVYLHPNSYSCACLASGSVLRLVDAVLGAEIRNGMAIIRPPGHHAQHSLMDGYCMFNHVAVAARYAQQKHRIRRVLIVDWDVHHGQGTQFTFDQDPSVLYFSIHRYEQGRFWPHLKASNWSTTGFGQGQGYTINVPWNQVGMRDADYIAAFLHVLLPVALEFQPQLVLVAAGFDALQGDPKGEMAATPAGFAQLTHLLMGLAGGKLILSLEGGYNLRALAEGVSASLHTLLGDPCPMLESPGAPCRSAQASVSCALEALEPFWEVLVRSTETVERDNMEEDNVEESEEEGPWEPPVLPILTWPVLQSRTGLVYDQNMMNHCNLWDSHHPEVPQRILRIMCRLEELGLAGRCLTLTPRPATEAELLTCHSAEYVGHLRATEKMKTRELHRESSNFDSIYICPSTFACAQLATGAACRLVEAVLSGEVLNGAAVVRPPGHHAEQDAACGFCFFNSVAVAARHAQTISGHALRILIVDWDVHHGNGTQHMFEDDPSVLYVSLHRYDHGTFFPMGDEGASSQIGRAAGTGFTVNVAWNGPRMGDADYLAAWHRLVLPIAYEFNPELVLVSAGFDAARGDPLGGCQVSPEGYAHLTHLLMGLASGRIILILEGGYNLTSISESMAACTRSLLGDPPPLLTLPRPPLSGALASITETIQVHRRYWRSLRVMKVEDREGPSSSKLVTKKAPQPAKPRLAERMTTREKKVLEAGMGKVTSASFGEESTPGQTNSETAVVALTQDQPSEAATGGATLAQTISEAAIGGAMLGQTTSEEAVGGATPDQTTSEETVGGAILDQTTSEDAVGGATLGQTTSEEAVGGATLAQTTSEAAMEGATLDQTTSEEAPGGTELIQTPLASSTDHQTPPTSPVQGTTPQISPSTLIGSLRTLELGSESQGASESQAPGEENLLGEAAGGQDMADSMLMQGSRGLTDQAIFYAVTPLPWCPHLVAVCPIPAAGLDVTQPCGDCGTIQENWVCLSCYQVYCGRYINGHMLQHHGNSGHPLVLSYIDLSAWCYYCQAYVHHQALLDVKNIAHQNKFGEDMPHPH

HDAC8 = biological target: T4, HDAC8 (Homo sapiens, UniProt Q9BY41); test: Inhibition of HDAC8 (unknown origin) at 10 uM relative to control
T4 sequence (Q9BY41 whole entry): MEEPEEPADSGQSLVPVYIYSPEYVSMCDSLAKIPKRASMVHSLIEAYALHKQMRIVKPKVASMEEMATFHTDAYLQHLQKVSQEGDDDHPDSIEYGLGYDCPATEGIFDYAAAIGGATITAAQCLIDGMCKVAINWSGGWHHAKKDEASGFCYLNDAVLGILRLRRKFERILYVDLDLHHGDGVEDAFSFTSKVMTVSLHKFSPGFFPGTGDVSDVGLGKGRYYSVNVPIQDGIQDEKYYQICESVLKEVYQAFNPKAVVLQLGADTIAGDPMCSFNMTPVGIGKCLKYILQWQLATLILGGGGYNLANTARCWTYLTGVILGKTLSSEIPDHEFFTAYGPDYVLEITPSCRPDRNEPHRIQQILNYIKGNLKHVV

HDAC9 = HDAC9 (Homo sapiens, UniProt Q9UKV0); test: Inhibition of HDAC9 (unknown origin) at 10 uM relative to control
Sequence of HDAC9 (Q9UKV0 whole entry): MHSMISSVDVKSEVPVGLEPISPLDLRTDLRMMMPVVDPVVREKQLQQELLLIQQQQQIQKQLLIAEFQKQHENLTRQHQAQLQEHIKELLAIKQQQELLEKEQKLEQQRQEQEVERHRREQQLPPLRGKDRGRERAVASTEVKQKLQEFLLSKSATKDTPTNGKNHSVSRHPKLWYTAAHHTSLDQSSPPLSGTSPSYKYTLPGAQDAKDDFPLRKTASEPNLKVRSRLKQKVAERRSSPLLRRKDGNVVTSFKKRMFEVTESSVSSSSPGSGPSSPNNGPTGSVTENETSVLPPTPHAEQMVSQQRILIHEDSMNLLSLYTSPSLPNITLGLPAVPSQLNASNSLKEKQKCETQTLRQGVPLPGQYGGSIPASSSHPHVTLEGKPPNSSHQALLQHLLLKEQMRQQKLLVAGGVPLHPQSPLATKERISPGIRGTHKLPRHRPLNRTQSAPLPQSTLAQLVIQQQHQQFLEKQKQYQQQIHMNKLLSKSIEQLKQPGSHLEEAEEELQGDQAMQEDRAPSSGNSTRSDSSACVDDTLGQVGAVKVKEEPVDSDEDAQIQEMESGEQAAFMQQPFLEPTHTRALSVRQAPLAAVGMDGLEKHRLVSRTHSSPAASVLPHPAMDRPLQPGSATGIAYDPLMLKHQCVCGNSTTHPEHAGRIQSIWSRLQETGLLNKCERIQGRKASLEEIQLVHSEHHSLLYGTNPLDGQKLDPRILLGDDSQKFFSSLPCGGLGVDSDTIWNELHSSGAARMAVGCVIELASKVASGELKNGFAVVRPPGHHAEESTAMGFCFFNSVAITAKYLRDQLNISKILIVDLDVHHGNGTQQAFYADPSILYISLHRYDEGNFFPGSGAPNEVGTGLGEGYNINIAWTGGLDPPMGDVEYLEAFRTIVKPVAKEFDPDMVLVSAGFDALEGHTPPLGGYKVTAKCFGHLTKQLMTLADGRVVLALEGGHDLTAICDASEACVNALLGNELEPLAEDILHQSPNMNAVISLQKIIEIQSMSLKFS

[18] = biological target: 3',5'-cyclic-AMP phosphodiesterase 4C (Homo sapiens) (UniProt Q08493); test: Inhibition of PDE4C1 (unknown origin) at 10 uM relative to control
Sequence of 3',5'-cyclic-AMP phosphodiesterase 4C (Homo sapiens) (Q08493 whole entry): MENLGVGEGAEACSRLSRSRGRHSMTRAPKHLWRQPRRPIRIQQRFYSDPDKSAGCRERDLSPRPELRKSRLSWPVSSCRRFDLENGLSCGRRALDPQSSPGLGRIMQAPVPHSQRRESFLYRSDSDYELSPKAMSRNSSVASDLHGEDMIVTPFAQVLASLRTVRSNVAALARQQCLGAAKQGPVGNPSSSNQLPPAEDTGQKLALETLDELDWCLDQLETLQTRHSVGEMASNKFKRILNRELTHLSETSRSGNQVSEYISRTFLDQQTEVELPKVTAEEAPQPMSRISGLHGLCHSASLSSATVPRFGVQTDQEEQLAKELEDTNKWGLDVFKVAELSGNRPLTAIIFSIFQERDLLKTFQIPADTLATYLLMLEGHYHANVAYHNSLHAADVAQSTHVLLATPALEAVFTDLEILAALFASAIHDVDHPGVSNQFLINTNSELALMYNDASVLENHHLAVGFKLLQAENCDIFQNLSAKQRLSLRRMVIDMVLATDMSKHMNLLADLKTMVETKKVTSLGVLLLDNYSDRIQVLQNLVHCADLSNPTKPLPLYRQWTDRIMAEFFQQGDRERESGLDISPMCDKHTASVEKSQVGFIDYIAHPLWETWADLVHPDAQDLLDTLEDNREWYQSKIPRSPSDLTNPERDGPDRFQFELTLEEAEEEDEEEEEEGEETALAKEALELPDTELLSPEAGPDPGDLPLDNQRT

Aurora B = Aurora B (Homo sapiens, UniProt Q96GD4); test: Inhibition of Aurora B (unknown origin) at 10 uM relative to control
Sequence of Aurora B (Q96GD4 whole entry): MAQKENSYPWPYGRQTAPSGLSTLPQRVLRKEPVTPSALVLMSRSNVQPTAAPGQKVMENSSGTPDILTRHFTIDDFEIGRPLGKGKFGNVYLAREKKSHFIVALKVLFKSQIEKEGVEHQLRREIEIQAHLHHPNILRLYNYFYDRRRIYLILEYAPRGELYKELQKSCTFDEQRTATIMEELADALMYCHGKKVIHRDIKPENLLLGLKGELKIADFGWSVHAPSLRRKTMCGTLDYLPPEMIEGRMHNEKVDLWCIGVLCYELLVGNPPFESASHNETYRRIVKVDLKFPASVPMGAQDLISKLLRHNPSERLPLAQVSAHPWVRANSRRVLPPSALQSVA

Row | Structure (SMILES) | inhibition at 24 h, 10 µM [10] | inhibition at 48 h, 10 µM [11] | inhibition at 24 h, 10 µM [12] | inhibition at 48 h, 10 µM [13] | inhibition at 24 h, 10 µM [14] | inhibition at 48 h, 10 µM [15] | inhibition at 24 h, 10 µM [16] | inhibition at 48 h, 10 µM [17] | inhibition at 10 µM (CYP1A2) | inhibition at 10 µM (CYP2C9) | inhibition at 10 µM (CYP2C19) | inhibition at 10 µM (CYP2D6) | inhibition at 10 µM (CYP3A4) | inhibition at 10 µM (hERG (KCNH2)) | inhibition at 10 µM (SIRT7) | inhibition at 10 µM (HDAC4) | inhibition at 10 µM (HDAC6) | inhibition at 10 µM (HDAC8) | inhibition at 10 µM (HDAC9) | inhibition [18] | further results
1 | N[C@@H](Cc1cc(I)c(Oc2ccc(O)c(I)c2)c(I)c1)C(=O)O [LIOTHYRONINE] |  |  |  |  |  |  |  |  |  |  |  |  |  |  |  |  |  |  |  |  | Activity [1]: Toxic; Activity [2]: Toxic; Activity [3]: Toxic; Activity [4]: 159 U/L; Activity [5]: 53 U/L; Activity [6]: 1.4 mg/dL; Activity [7]: 139 mg/dL; Activity [8]: 65.2 mg/dL; Activity [9]: 90.2 mg/dL
2 | Cc1cc(OCC(=O)O)cc(C)c1Cc1ccc(N)cc1 | < 50% | < 50% | < 50% | < 50% | < 50% | < 50% | < 50% | < 50% | < 50% | < 50% | < 50% | < 50% | < 50% | < 25% | < 50% | < 50% | < 50% | < 50% | < 50% | < 50% | inhibition at 10 µM (Aurora B): < 50%
3 | Cc1cc(OCCN)cc(C)c1Cc1ccc(O)cc1 | < 50% | < 50% | < 50% | < 50% | < 50% | < 50% | < 50% | < 50% | 51% | > 91% | > 91% | 51% | 51% | 51% | < 50% | < 50% | < 50% | < 50% | < 50% | < 50% | inhibition at 10 µM (Aurora B): < 50%
